Test results: ChEMBL document CHEMBL1201862, “PubChem BioAssay data set” (2004)
The source made the active and inactive calls.

Tests used:
[1] = cytotoxicity toward DRD oncogenic fibroblasts, dose response, cell-based, non-viral oncogenic, luminescence (AID 1934); assay type: functional; conditions: Homo sapiens
[2] = inhibitors of SNCA 5'UTR-driven reporter translation, confirmation, H4 neuroglioma cells, luminescence (AID 1988); assay type: functional, cell-based
BJ [3] = experiment: cytotoxicity toward BJ-TERT-LT-ST fibroblasts, dose response, cell-based, RAS-independent, luminescence (AID 1935); assay type: functional; conditions: Homo sapiens;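 also: BJ fibroblasts immortalized with TERT plus LT and ST oncogenes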
BJ [4] = experiment: cells; assay type: functional, cell-based; conditions: Homo sapiens
[5] = Luminescence Cell-Based Dose Response HTS to Identify Inhibitors of 5'UTR Stem-Loop Driven Prion Protein mRNA Translation in H4 Neuroglioblastoma Cells. [Related pubchem assays: 1827 (Project Summary), 1813 (Primary HTS)]; assay type: functional
[6] = inhibitors of firefly luciferase expression or activity, dose response, H4 neuroglioma cells, luminescence (AID 1990); assay type: functional, cell-based
BJ [7] = experiment: cytotoxicity toward BJ-TERT fibroblasts, dose response, cell-based, RAS-independent, luminescence (AID 1933); assay type: functional; conditions: Homo sapiens
[8] = cytotoxicity in HEK-293T cells, dose response, cytotoxicity control for TCR NF-kB inhibitor project, luminescence, T-cell screen hits (AID 489026); assay type: functional, cell-based;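 also: cells exposed to compound about 14 hours before the viability readout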
[9] = biological target: T1, Peroxisome proliferator-activated receptor gamma/Nuclear receptor coactivator 3 (Homo sapiens, UniProt P37231); assay type: functional
[10] = biological target: T2, Peroxisome proliferator-activated receptor gamma/Nuclear receptor coactivator 2 (Homo sapiens, UniProt P37231); assay type: functional
T2 sequence (P37231 whole entry): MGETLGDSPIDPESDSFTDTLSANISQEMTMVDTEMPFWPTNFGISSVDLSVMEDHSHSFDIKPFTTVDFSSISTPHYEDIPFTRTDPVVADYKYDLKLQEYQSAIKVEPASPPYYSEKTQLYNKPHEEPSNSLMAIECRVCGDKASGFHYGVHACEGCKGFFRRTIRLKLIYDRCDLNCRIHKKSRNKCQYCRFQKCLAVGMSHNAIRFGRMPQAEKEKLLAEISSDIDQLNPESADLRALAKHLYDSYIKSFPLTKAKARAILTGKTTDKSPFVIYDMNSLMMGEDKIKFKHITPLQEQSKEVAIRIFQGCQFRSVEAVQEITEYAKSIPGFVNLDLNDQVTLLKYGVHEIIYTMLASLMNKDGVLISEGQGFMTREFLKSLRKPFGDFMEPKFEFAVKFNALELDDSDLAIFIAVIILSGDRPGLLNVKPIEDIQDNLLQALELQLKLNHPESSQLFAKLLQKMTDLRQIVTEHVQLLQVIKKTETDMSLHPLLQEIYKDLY
T2 sequence (Q15596 whole entry, further chain): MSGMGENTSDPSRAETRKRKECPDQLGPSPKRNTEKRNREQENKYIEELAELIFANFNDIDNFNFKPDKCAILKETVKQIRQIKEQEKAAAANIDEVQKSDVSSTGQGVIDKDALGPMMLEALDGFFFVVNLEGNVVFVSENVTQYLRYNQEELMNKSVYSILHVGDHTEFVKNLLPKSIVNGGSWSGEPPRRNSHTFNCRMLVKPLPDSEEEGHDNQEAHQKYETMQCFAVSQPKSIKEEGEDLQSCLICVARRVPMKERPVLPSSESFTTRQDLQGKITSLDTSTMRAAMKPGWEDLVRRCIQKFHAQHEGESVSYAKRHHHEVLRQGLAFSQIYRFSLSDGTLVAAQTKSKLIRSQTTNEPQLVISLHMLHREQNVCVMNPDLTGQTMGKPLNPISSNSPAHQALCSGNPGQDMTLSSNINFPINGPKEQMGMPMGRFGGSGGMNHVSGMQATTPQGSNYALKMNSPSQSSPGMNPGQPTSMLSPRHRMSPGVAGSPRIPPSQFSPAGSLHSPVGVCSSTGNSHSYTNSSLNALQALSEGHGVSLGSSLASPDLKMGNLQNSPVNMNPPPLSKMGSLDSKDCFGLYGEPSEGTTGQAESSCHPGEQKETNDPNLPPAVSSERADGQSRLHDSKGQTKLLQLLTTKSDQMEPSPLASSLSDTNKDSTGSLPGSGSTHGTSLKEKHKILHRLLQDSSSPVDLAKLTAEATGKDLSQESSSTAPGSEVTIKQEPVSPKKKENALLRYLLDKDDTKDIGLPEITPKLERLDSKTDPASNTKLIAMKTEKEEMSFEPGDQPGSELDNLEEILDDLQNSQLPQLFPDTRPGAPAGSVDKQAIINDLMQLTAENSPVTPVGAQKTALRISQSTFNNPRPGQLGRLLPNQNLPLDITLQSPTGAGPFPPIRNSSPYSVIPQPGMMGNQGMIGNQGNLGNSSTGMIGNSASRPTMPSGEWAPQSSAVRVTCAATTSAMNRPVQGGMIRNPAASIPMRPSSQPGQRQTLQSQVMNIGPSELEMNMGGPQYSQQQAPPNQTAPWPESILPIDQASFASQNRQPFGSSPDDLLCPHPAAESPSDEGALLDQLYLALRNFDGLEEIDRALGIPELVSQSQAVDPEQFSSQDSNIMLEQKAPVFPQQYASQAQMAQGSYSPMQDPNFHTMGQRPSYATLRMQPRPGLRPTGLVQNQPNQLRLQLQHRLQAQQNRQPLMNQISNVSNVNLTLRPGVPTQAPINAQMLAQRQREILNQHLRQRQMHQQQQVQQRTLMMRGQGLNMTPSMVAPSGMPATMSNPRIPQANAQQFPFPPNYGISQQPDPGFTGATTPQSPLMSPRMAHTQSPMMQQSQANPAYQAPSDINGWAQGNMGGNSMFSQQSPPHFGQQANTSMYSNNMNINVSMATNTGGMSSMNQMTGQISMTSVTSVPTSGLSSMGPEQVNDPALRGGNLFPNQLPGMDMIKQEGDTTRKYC

[11] = biological target: T3, Peroxisome proliferator-activated receptor gamma/Nuclear receptor coactivator 1 (Homo sapiens, UniProt P37231); assay type: functional
T3 sequence (P37231 whole entry): as the sequence (P37231 whole entry) above
T3 sequence (Q15788 whole entry, further chain): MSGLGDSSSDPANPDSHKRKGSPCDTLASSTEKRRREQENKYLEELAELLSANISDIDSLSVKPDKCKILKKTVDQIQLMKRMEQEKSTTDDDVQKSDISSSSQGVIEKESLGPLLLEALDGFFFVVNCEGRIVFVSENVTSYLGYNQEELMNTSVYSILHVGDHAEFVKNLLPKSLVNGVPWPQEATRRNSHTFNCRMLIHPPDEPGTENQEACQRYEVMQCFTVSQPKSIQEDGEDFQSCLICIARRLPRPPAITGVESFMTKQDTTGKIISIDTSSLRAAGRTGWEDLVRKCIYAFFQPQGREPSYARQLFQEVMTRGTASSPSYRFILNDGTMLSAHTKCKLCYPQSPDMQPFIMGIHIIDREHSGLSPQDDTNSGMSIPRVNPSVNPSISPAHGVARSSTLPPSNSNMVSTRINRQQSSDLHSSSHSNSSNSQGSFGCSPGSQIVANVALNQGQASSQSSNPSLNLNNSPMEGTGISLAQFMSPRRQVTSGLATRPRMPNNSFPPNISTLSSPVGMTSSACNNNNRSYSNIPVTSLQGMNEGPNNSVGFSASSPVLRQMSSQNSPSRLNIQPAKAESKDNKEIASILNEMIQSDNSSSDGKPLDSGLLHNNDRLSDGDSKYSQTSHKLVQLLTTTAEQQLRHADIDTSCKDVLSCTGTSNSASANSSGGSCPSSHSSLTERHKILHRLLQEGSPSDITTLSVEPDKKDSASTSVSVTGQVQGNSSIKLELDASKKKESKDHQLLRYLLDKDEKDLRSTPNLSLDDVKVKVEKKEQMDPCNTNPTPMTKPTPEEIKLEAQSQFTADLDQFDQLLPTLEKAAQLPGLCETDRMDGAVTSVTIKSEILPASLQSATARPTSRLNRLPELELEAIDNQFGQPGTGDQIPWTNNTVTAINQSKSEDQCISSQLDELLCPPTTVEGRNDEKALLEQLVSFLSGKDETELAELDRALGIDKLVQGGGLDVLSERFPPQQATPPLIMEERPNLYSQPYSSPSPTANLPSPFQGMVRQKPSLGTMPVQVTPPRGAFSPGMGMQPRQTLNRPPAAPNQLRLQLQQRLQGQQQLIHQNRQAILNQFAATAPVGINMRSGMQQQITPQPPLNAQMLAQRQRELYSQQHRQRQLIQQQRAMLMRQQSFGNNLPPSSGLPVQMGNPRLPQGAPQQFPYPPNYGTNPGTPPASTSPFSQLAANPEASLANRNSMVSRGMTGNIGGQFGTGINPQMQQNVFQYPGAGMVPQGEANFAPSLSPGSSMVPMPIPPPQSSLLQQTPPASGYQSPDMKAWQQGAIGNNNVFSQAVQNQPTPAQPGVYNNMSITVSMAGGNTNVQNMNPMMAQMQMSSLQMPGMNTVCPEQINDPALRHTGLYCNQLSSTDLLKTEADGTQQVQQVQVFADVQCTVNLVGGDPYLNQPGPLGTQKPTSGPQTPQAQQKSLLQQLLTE

H4 = experiment: Luminescence Cell-Based Dose Response HTS to Identify Activators of 5'UTR Stem-Loop Driven Prion Protein mRNA Translation in H4 Neuroglioblastoma Cells. [Related pubchem assays: 1829 (Project Summary), 1814 (Primary HTS)]; assay type: functional; conditions: Homo sapiens
[12] = Luminescence Cell-Based Dose Confirmation HTS to Identify Activators of 5'UTR Stem-Loop Driven Alpha-Synuclein mRNA Translation in H4 Neuroglioblastoma Cells. [Related pubchem assays: 1829 (Project Summary), 1814 (Primary HTS)]; assay type: functional
[13] = Luminescence Cell-Based Dose Response HTS to Identify Activators of Luciferase Translation or Activity in H4 […] Cells. [Related pubchem assays: 1829 (Project Summary), 1814 (Primary HTS)]; assay type: functional
[14] = inhibitors of Vif binding to APOBEC3G peptide, primary screen, biochemical, TR-FRET, GST-Vif 1-94, biotin-A3G peptide, dose response retest (AID 1117319); assay type: functional;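 also: TR-FRET signal of purified GST-Vif binding a biotinylated A3G peptide; inhibitors lower the FRET signal by blocking Vif and A3G binding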
[15] = biological target: T4, Ubiquitin-conjugating enzyme E2 N (Homo sapiens, UniProt P61088); assay type: functional
T4 sequence (P61088 whole entry): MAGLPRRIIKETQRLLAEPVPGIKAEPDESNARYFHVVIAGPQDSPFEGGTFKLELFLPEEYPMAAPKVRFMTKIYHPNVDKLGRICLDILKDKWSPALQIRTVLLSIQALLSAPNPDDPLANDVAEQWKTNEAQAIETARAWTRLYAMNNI

[16] = biological target: T4, Ubiquitin-conjugating enzyme E2 N; assay type: functional; remark: listed apart in the source
Bcl-2-related protein A1 = biological target: T5, Bcl-2-related protein A1 (Mus musculus, UniProt Q07440); assay type: functional;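 also: confirmatory dose–response counterscreen on Bfl-1, used to check hits from a UBC13 polyubiquitin inhibitor campaign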
T5 sequence (Q07440 whole entry): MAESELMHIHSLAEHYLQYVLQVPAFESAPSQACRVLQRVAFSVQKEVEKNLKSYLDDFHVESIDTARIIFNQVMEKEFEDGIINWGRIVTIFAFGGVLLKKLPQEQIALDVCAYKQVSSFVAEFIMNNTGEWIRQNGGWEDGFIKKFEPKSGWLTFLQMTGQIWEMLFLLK

[17] = biological target: Mitogen-activated protein kinase 10 (Homo sapiens, UniProt P53779); experiment: Dose response biochemical screening assay for inhibitors of c-Jun N-Terminal Kinase 3 (JNK3). [Related pubchem assays: 746 ]
Mitogen-activated protein kinase 10, sequence (P53779 whole entry): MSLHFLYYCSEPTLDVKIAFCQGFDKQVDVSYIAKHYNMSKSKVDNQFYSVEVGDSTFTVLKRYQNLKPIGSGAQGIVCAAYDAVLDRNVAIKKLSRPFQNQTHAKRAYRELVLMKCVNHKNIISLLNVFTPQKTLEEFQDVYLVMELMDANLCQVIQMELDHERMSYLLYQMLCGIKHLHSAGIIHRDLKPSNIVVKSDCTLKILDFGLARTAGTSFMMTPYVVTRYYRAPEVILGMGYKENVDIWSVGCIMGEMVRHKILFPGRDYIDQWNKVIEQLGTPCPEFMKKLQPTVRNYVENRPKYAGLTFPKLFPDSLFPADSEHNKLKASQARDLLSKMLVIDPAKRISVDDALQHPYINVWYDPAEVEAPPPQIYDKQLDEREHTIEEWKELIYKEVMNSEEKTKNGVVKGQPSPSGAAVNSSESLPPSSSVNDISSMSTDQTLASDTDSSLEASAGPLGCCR

Aminopeptidase N = biological target: T6, Aminopeptidase N (Plasmodium falciparum FcB1/Columbia, UniProt O96935); experiment: P. falciparum M1AAP inhibitors, biochemical, fluorogenic H-Leu-NHMec substrate, 1536-well (AID 1445); set-up: species or system Plasmodium falciparum 3D7, 3D7
T6 sequence (O96935 whole entry): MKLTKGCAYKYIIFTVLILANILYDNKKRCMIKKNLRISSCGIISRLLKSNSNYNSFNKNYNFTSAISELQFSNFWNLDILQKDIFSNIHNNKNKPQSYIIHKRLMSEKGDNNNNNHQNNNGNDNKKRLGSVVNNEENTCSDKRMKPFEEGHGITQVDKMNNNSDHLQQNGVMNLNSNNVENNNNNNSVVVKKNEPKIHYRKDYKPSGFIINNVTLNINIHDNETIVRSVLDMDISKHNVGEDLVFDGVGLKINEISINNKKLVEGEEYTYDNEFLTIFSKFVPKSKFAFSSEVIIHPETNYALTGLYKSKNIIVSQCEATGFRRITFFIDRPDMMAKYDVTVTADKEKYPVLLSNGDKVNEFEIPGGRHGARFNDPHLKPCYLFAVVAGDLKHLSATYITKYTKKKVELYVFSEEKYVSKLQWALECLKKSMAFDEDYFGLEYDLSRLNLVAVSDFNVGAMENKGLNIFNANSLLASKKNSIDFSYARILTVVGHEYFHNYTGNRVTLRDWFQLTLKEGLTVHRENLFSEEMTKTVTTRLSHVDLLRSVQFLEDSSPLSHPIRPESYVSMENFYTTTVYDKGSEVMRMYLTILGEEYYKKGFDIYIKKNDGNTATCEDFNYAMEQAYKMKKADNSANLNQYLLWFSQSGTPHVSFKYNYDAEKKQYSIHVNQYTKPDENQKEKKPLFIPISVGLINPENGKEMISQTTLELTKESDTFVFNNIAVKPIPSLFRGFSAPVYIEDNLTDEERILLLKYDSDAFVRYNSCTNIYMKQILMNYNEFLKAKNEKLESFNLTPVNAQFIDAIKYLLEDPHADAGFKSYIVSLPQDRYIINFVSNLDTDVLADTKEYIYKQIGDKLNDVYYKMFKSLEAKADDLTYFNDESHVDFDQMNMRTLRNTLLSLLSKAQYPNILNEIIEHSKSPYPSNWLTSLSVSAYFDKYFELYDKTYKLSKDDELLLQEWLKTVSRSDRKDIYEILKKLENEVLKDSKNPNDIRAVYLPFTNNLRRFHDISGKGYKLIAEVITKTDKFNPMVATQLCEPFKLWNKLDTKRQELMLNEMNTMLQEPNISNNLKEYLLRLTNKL

[18] = biological target: T1, Peroxisome proliferator-activated receptor gamma/Nuclear receptor coactivator 3; experiment: (§1) TR-FRET dose response biochemical High Throughput Screening assay for agonists of the steroid receptor coactivator 3 (SRC-3) recruitment by the peroxisome proliferator-activated receptor gamma (PPAR gamma): non-selective agonists. [Related pubchem assays: 1301 (Confirmation screen.), 1048 (Primary screen.)]; assay type: functional
[19] = biological target: T3, Peroxisome proliferator-activated receptor gamma/Nuclear receptor coactivator 1; experiment: as §1, with “1 (SRC-1)” for “3 (SRC-3)”, “assays (depositor defined):AID1300, AID1808, AID504735, AID631]” for “assays: 1301 (Confirmation screen.), 1048 (Primary screen.)]”; assay type: protein assay
[20] = biological target: T2, Peroxisome proliferator-activated receptor gamma/Nuclear receptor coactivator 2; experiment: TR-FRET dose response biochemical High Throughput Screening assay for agonists of the steroid receptor coactivator 2 (SRC-2) recruitment by the peroxisome proliferator-activated receptor gamma (PPAR gamma): non-selective agonists. [Related pubchem assays: 1297, 1032 ]; assay type: functional

Cc1cccc(N2CCN(C(=O)c3c(-c4ccccc4)noc3C)CC2)c1C
EC50 [1]: 2.58 µM (active)
EC50 [2]: 6.76 µM (active)
EC50 (BJ [3]): 2.67 µM (active)
EC50 (BJ [4]): 89.6 µM (active)
EC50 [5]: 17.1 µM (active)
EC50 [6]: 10.9 µM (active)
EC50 (BJ [7]): 4.1 µM (active)
IC50 [8]: > 80 µM (inactive)

CC(C)CNC(=O)COC(=O)c1ccccc1OCC(=O)Nc1ccc(Br)cc1
EC50 [9]: > 79.4 µM (not active)
EC50 [10]: > 79.4 µM (not active)
EC50 [11]: > 79.4 µM (not active)

Cc1ccc(-c2csc(NC(=O)Cc3cccs3)n2)cc1C
EC50 (H4): 15.1 µM (active)
EC50 [12]: 10.2 µM (active)
EC50 [13]: 28.7 µM (active)
IC50 [14]: > 100 µM (active)

CCOC(=O)C1=C(COC(=O)c2ncc(Cl)c(Cl)c2Cl)NC(=O)NC1C (stereo not given)
IC50 [15]: 7.88 µM (active)
IC50 [16]: 9.23 µM (active)
IC50 (Bcl-2-related protein A1): > 20 µM (inactive)

COc1ccc(COC(=O)c2[nH]nc3ccccc23)cc1F
IC50 [17]: 11.4 µM (not active)

COc1ccccc1OCc1nc2ccccc2[nH]1
EC50 [9]: > 79.4 µM (not active)
EC50 [10]: > 79.4 µM (not active)
EC50 [11]: > 79.4 µM (not active)

COc1ccc(NC(=O)C2C3C=CC(C3)C2C(=O)NCc2ccco2)c(OC)c1 (stereo not given)
IC50 (Aminopeptidase N): 89.2 µM (active)

O=C(C1=C[C@@H](c2ccc(C(F)(F)F)cc2)C[C@@H](OCc2ccc(CO)cc2)O1)N1CCOCC1
EC50 [9]: > 79.4 µM (not active)
EC50 [10]: > 79.4 µM (not active)
EC50 [11]: > 79.4 µM (not active)

CCn1c(=O)cc(SCC(=O)Nc2ccc3c(c2)OCCO3)c2ccccc21
EC50 [18]: > 79.4 µM (not active)
EC50 [19]: 7.45 µM (active)
EC50 [20]: 7.21 µM (active)

Cn1ncc2c(NCc3ccccc3)ncnc21
IC50 [17]: > 31 µM (not active)
